Data taken from patent US7531554B2, “4-oxoquinoline compound and use thereof as HIV integrase inhibitor” (Japan Tobacco Inc., priority 2004, dated 2009).
pIC50: −log10 of the molar value. Counter-ions that a name gives are not always drawn.

Biological target: T1, HIV integrase (Human immunodeficiency virus type 1 group M subtype B, UniProt P12497, F1332H)
T1 construct: HIV integrase full length gene (J. Virol., 67, 425-437 (1993)) in which phenylalanine at codon 185 was substituted by histidine; made in house; host or cells: Escherichia coli BL21(DE3)
Experiment: Determination of enzyme (HIV integrase) inhibitory activity
Assay type: biochemical
Conditions: recombinant integrase protein (F185H), donor DNA/target DNA, absorbance at 450 nm
Description: HIV integrase full length gene (J. Virol., 67, 425-437 (1993)) in which phenylalanine at codon 185 was substituted by histidine, was inserted between the restriction enzyme NdeI and XhoI sites of plasmid pET21a(+) (Novagen), whereby an integrase expression vector pET21a-IN-F185H was constructed.
Escherichia coli recombinant BL21(DE3) transformed with plasmid pET21a-IN-F185H obtained in (i) was shake cultured at 30° C. in a liquid medium containing ampicillin. When the culture reached the logarithmic growth phase, isopropyl-β-D-thiogalactopyranoside was added to promote expression of integrase gene. The culture was continued for 3 hr to promote accumulation of the integrase protein. The recombinant E. coli was collected in pellets by centrifugal separation and preserved at −80° C.
The E. coli was suspended in Lysis buffer (20 mM HEPES (pH 7.5), 5 mM DTT, 10 mM CHAPS, 10% glycerol) containing 1M sodium chloride and subjected to repeat pressurization and depressurization for rupture, and centrifugal separation at 4° C., 40,000×g, 60 min to recover a water-soluble fraction (supernatant). This was diluted 10-fold with Lysis buffer free of sodium chloride, mixed with SP-Sepharose (Pharmacia Corporation) and stirred at 4° C. for 60 min to allow adsorption of integrase protein to the resin. The resin was washed with Lysis buffer containing 100 mM sodium chloride and the integrase protein was eluted with Lysis buffer containing 1M sodium chloride.
The eluted integrase protein solution was subjected to a Superdex 75 (Pharmacia Corporation) column for gel filtration. The protein was eluted with Lysis buffer containing 1M sodium chloride.
The obtained fractions of the integrase protein were collected and preserved at −80° C.
The following DNA synthesized by Greiner was dissolved in TE buffer (10 mM Tris-hydrochloric acid (pH 8.0), 1 mM EDTA) and mixed with donor DNA, target DNA, and each complementary strand (+ and − strands) to 1 μM. The mixture was heated at 95° C. for 5 min, 80° C. for 10 min, 70° C. for 10 min, 60° C. for 10 min, 50° C. for 10 min and 40° C. for 10 min and kept at 25° C. to give a double stranded DNA, which was used for the test. Donor DNA ([…] attached to the 5′ terminal) Donor + strand: 5′-Biotin-ACCCTTTTAGTCAGTGTGGAAAATCTCTAGCA-3′ (SEQ ID NO:1) Donor − strand: 5′-ACTGCTAGAGATTTTCCACACTGACTAAAAG-3′ (SEQ ID NO:2) Target DNA (+, − strands both having digoxigenin added at 3′ terminal) Target + strand: 5′-TGACCAAGGGCTAATTCACT-Dig-3′ (SEQ ID NO:3) Target − strand: 5′-AGTGAATTAGCCCTTGGTCA-Dig-3′ (SEQ ID NO:4)
The donor DNA was diluted with TE buffer to 10 nM, of which 50 μl was added to each well of streptavidin-coated microtiter plate (Roche) and allowed to adsorb at 37° C. for 60 min. The plate was washed with phosphate buffer (Dulbecco's PBS, Sanko Junyaku Co., Ltd.) containing 0.1% Tween 20 and phosphate buffer. Then, an enzyme reaction mixture (70 μl), a test substance (10 μl) diluted with the reaction mixture and 100 μg/ml integrase protein (10 μl) were added to each well and reacted at 37° C. for 60 min.
Then, 50 nM target DNA (10 μl) was added, reacted at 37° C. for 10 min and washed with phosphate buffer containing 0.1% Tween 20 to stop the reaction.
Then, 100 mU/ml peroxidase labeled anti-digoxigenin antibody solution (Roche, 100 μl) was added, and the mixture was reacted at 37° C. for 60 min, followed by washing with phosphate buffer containing 0.1% Tween 20.
A peroxidase color solution (Bio Rad, 100 μl) was added and allowed to react at room temperature for 4 min. The color reaction was stopped by adding 1N sulfuric acid (100 μl). The absorbance at 450 nm was measured.
The HIV integrase inhibitory activity (IC50) of the compound of the present invention was calculated from the inhibition rate according to the following formula. […]

| SMILES | pIC50 |
| --- | --- |
| CC(C)[C@@H](CO)n1cc(C(=O)O)c(=O)c2cc(Cc3cccc(Cl)c3F)c(OCC(=O)O)cc21 [Example 4-50, 7-(carboxymethoxy)-6-(3-chloro-2-fluorobenzyl)-1-((1S)-1-(hydroxymethyl)-2-methylpropyl)-4-oxo-1,4-dihydroquinoline-3-carboxylic acid] | 8.28 |
| CNS(=O)(=O)COc1cc2c(cc1Cc1cccc(Cl)c1F)c(=O)c(C(=O)O)cn2[C@H](CO)C(C)C [Example 4-3, 6-(3-chloro-2-fluorobenzyl)-1-((1S)-1-(hydroxymethyl)-2-methylpropyl)-7-((methylamino)sulfonylmethoxy)-4-oxo-1,4-dihydroquinoline-3-carboxylic acid] | 8.33 |
| CC(C)[C@@H](CO)n1cc(C(=O)O)c(=O)c2cc(Cc3cccc(Cl)c3F)c(N3CCC(O)CC3)cc21 [Example 4-21, 6-(3-chloro-2-fluorobenzyl)-1-((1S)-1-(hydroxymethyl)-2-methylpropyl)-7-(4-hydroxypiperidin-1-yl)-4-oxo-1,4-dihydroquinoline-3-carboxylic acid] | 8.18 |
| CC(C)[C@@H](CO)n1cc(C(=O)O)c(=O)c2cc(Cc3cccc(Cl)c3F)c(OCCN3CCCC3)cc21 [Example 4-17, 6-(3-chloro-2-fluorobenzyl)-1-((1S)-1-(hydroxymethyl)-2-methylpropyl)-4-oxo-7-(2-(pyrrolidin-1-yl)ethoxy)-1,4-dihydroquinoline-3-carboxylic acid] | 7.96 |
| CC(C)[C@@H](CO)n1cc(C(=O)O)c(=O)c2cc(Cc3cccc(Cl)c3F)c(OCS(=O)(=O)N(C)C)cc21 [Example 4-28, 6-(3-chloro-2-fluorobenzyl)-7-((dimethylamino)sulfonylmethoxy)-1-((1S)-1-(hydroxymethyl)-2-methylpropyl)-4-oxo-1,4-dihydroquinoline-3-carboxylic acid] | 8.35 |
| CC(C)[C@@H](CO)n1cc(C(=O)O)c(=O)c2cc(Cc3cccc(Cl)c3F)c(OCCCO)cc21 [Example 7-4, 6-(3-chloro-2-fluorobenzyl)-1-((1S)-1-(hydroxymethyl)-2-methylpropyl)-7-(3-hydroxypropoxy)-4-oxo-1,4-dihydroquinoline-3-carboxylic acid] | 8.44 |
| CC1CN(c2cc3c(cc2Cc2cccc(Cl)c2F)c(=O)c(C(=O)O)cn3[C@H](CO)C(C)C)CC(C)O1 (stereo partly drawn) [Example 4-31, 6-(3-chloro-2-fluorobenzyl)-7-(2,6-dimethylmorpholin-4-yl)-1-((1S)-1-(hydroxymethyl)-2-methylpropyl)-4-oxo-1,4-dihydroquinoline-3-carboxylic acid] | 7.89 |
| COc1cc2c(cc1C(O)c1cccc(Cl)c1F)c(=O)c(C(=O)O)cn2[C@H](CO)C(C)C (single isomer, unassigned) [Example 7-7] | 7.77 |
| CC(C)[C@@H](CO)n1cc(C(=O)O)c(=O)c2cc(Cc3cccc(Cl)c3F)c(N3CCSCC3)cc21 [Example 4-32, 6-(3-chloro-2-fluorobenzyl)-1-((1S)-1-(hydroxymethyl)-2-methylpropyl)-4-oxo-7-(thiomorpholin-4-yl)-1,4-dihydroquinoline-3-carboxylic acid] | 8.15 |
| CC(C)[C@@H](CO)n1cc(C(=O)O)c(=O)c2cc(Cc3cccc(Cl)c3F)cc(OCCCCO)c21 [Example 3-3, 6-(3-chloro-2-fluorobenzyl)-8-(4-hydroxybutoxy)-1-((1S)-1-(hydroxymethyl)-2-methylpropyl)-4-oxo-1,4-dihydroquinoline-3-carboxylic acid] | 8.20 |
| CC(C)[C@@H](CO)n1cc(C(=O)O)c(=O)c2cc(Cc3cccc(Cl)c3F)cc(OCCCO)c21 [Example 3-2, 6-(3-chloro-2-fluorobenzyl)-1-((1S)-1-(hydroxymethyl)-2-methylpropyl)-8-(3-hydroxypropoxy)-4-oxo-1,4-dihydroquinoline-3-carboxylic acid] | 8.33 |
| CC(=O)N1CCC(Oc2cc3c(cc2Cc2cccc(Cl)c2F)c(=O)c(C(=O)O)cn3[C@H](CO)C(C)C)CC1 [Example 4-45, 7-((1-acetylpiperidin-4-yl)oxy)-6-(3-chloro-2-fluorobenzyl)-1-((1S)-1-(hydroxymethyl)-2-methylpropyl)-4-oxo-1,4-dihydroquinoline-3-carboxylic acid] | 7.89 |
| CC(C)[C@@H](CO)n1cc(C(=O)O)c(=O)c2cc(Cc3cccc(Cl)c3F)c(Oc3ccccc3)cc21 [Example 4-44, 6-(3-chloro-2-fluorobenzyl)-1-((1S)-1-(hydroxymethyl)-2-methylpropyl)-4-oxo-7-phenoxy-1,4-dihydroquinoline-3-carboxylic acid] | 8.31 |
| CC(C)[C@@H](CO)n1cc(C(=O)O)c(=O)c2cc(Cc3cccc(Cl)c3F)c(O[C@H]3CCN(C)C3)cc21 [Example 4-54, 6-(3-chloro-2-fluorobenzyl)-1-((1S)-1-(hydroxymethyl)-2-methylpropyl)-7-((3S)-1-methylpyrrolidin-3-yloxy)-4-oxo-1,4-dihydroquinoline-3-carboxylic acid trifluoroacetate] | 8.15 |
| CO[C@H](C)[C@@H](CO)n1cc(C(=O)O)c(=O)c2cc(Cc3cccc(Cl)c3F)ccc21 [Example 2-15, 6-(3-chloro-2-fluorobenzyl)-1-((1R,2R)-1-(hydroxymethyl)-2-methoxypropyl)-4-oxo-1,4-dihydroquinoline-3-carboxylic acid] | 8.28 |
| CC(=O)N[C@@H]1CCN(c2cc3c(cc2Cc2cccc(Cl)c2F)c(=O)c(C(=O)O)cn3[C@H](CO)C(C)C)C1 [Example 4-27, 7-((3R)-3-(acetylamino)pyrrolidin-1-yl)-6-(3-chloro-2-fluorobenzyl)-1-((1S)-1-(hydroxymethyl)-2-methylpropyl)-4-oxo-1,4-dihydroquinoline-3-carboxylic acid] | 7.80 |
| CC(=O)N1CCN(c2cc3c(cc2Cc2cccc(Cl)c2F)c(=O)c(C(=O)O)cn3[C@H](CO)C(C)C)CC1 [Example 4-11, 7-(4-acetylpiperazin-1-yl)-6-(3-chloro-2-fluorobenzyl)-1-((1S)-1-(hydroxymethyl)-2-methylpropyl)-4-oxo-1,4-dihydroquinoline-3-carboxylic acid] | 8.17 |
| CC(C)[C@@H](CO)n1cc(C(=O)O)c(=O)c2cc(Cc3cccc(Cl)c3F)c(OC3CCNCC3)cc21 [Example 4-25, 6-(3-chloro-2-fluorobenzyl)-1-((1S)-1-(hydroxymethyl)-2-methylpropyl)-4-oxo-7-(piperidin-4-yloxy)-1,4-dihydroquinoline-3-carboxylic acid] | 8.39 |
| CC(C)[C@@H](CO)n1cc(C(=O)O)c(=O)c2cc(Cc3cccc(Cl)c3F)c(OCCCCO)cc21 [Example 4-5, 6-(3-chloro-2-fluorobenzyl)-7-(4-hydroxybutoxy)-1-((1S)-1-(hydroxymethyl)-2-methylpropyl)-4-oxo-1,4-dihydroquinoline-3-carboxylic acid] | 8.47 |
| CC(C)[C@@H](CO)n1cc(C(=O)O)c(=O)c2cc(Cc3cccc(Cl)c3F)c(OCCN)cc21 [Example 4-18, 7-(2-aminoethoxy)-6-(3-chloro-2-fluorobenzyl)-1-((1S)-1-(hydroxymethyl)-2-methylpropyl)-4-oxo-1,4-dihydroquinoline-3-carboxylic acid hydrochloride] | 8.32 |
